Reference: patent US20140011277A1, “NOVEL THERAPEUTIC STRATEGIES FOR IMPROVING AN ANTICANCER TREATMENT” (CENTRE NATIONAL DE LA RECHERCHE SCIENTIFIQUE (CNRS), priority 2010, published 2014)

Key:
[1] = molecular target: T1, human Patched protein (Homo sapiens, UniProt Q13635); test: Binding of doxorubicin to Patched protein (quenching of doxorubicin fluorescence on yeast membrane preparations); details: 50 nM doxorubicin added to 30 μg of membranes; Patched-containing vs K699 control membranes
T1 sequence (Q13635 1-1447): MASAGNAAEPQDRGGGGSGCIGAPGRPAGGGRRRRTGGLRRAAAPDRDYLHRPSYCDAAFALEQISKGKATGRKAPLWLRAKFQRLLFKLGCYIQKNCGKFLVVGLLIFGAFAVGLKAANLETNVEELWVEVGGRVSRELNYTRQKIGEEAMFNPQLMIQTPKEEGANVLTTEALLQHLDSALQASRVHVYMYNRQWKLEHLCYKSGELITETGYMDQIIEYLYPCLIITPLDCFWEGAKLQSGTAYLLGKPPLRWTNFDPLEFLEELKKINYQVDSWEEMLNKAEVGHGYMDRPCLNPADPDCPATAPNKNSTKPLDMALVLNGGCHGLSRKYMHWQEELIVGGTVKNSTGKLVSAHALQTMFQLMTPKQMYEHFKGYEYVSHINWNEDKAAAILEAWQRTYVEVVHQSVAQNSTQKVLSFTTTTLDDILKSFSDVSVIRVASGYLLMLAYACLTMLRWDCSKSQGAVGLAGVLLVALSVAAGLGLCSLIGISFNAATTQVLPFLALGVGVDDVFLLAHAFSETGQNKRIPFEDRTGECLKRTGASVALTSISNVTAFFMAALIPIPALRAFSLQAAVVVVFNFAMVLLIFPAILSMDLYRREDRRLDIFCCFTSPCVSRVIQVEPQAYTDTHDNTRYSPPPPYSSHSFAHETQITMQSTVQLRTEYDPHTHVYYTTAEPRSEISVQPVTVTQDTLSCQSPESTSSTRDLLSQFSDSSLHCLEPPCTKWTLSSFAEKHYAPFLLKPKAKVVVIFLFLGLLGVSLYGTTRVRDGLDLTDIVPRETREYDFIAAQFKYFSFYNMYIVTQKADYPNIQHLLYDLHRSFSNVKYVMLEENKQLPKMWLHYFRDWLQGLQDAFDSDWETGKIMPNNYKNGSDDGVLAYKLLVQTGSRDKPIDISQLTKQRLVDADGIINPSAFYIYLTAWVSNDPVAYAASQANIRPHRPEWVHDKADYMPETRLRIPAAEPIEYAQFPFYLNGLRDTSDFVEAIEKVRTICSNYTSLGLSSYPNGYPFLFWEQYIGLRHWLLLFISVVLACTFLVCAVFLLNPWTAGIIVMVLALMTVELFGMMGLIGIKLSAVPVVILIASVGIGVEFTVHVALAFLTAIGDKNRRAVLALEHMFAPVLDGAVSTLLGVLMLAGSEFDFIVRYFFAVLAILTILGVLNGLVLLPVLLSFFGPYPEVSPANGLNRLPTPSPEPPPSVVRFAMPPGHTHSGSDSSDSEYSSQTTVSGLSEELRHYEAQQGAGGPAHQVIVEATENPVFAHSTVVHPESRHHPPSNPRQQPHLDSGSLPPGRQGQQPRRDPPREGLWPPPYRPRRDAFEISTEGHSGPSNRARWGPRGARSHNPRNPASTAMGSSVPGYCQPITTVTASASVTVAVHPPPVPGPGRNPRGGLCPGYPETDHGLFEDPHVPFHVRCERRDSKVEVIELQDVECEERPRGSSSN
Experimental: 50 nM of doxorubicin are added to 30 μg of membranes and the doxorubicin fluorescence is measured as a function of time.

[2] = molecular target: T1, human Patched protein; test: Measurement of the efflux of doxorubicin on yeasts; format: cell-based; set-up: expressed in transfected cells; host or cells: Xenopus laevis oocytes (RNA injection); details: yeasts loaded 2 hours with 10 μM doxorubicin, supernatant after 20 mins; Patched-expressing vs K699 control
Experimental: After a centrifugation (5 mins at 6800 g) to remove all cell fragments, the reading of the doxorubicin fluorescence (λex=490+/−10 nm, λem=610+/−10 nm) was carried out on 200 μL of supernatant in a plate reader (FLUOstar, Labtech). • on yeasts: K699 control yeasts and yeasts expressing human Patched protein were cultured at 18° C. up to an OD600 of 7 on a rich medium with 2% of added D-glucose.
The cells are then centrifuged, (5 mins. 3000 g), washed 4 times with water and finally resuspended carefully to an OD600 of 10 in 50 mM NaOH-Hepes buffer (pH 7.0) and incubated for 2 hours with 10 μM of doxorubicin.
After rinsing, the yeasts are resuspended in 50 mM NaOH-Hepes buffer (pH 7.0).
After 20 mins, the yeasts are centrifuged and doxorubicin contained in the supernatant is measured by fluorescence (λex=490+/−10 nm, λem=610+/−10 nm). • On xenopus oocytes: obtaining and preparing the oocytes

[3] = system: yeasts expressing human Patched protein; test: Resistance of yeasts to doxorubicin (growth, OD at 600 nm over time); format: cell-based, S. cerevisiae; details: 10 μg/mL doxorubicin in rich medium, 18° C.; yeasts expressing human Patched protein vs K699 control yeasts
Experimental: Yeasts not expressing human Patched protein (controls) K699 and yeasts expressing human Patched protein were cultured at 18° C. in normal rich medium and in rich medium with 10 μg of added doxorubicin per mL of medium.
The OD of the yeasts at 600 nm is measured over time.

[4] = molecular target: T1, human Patched protein; test: Measurement of the efflux of doxorubicin on xenopus oocytes; format: cell-based; set-up: expressed in transfected cells; host or cells: Xenopus laevis oocytes (RNA injection); details: oocytes injected with 10 or 20 ng RNA encoding human Patched protein vs non-injected; 100 μM doxorubicin 16 hrs, supernatant after 90 mins
Experimental: The oocytes are collected by surgery on an Xenopus laevis female anaesthetized with 0.2% of MS222 (tricaine methanesulfonate) in accordance with the procedures recommended by the ethics committee. The oocytes are washed with an MBS saline solution, pH 7.4 (NaCl 85 mM, KCl 1 mM, NaHCO32,4 mM, MgSO40.82 mM, Ca(NO3)20.33 mM, CaCl2 0.41 mM, HEPES 10 mM, NaOH 4.5 mM) supplemented with 50 U/ml of penicillin and 50 μg/ml of streptomycin. The oocytes are then defolliculated by incubation for 16 hrs at 19° C. with 1.8 mg/ml of collagenase then 30 mins with MBS without calcium, and placed in MBS. 50 nL containing 10 or 20 ng of RNA encoding human Patched protein are injected per oocyte. The oocytes are incubated for 3 days at 19° C. in MBS. 4 lots of 10 control oocytes (not injected) and oocytes injected with RNA encoding human Patched protein were incubated for 16 hrs at 19° C. with 100 μM of doxorubicin. After rinsing, the oocytes are placed in MBS. The supernatant is sampled after 90 mins and the doxorubicin fluorescence present in the sample is measured by fluorescence (λex=490+/−10 nm, λem=610+/−10 nm).
The experiments being carried out on 4 lots of 10 control oocytes (non-injected) and oocytes injected with RNAs encoding human Patched protein, the average of the values obtained for the 4 lots is shown.

## COc1cccc2c1C(=O)c1c(O)c3c(c(O)c1C2=O)C[C@@](O)(C(=O)CO)C[C@@H]3O[C@H]1C[C@H](N)[C@H](O)[C@H](C)O1 [doxorubicin]
[1]
  quenching of doxorubicin fluorescence (binding to Patched protein): rapid and significant quenching of the doxorubicin fluorescence
[2]
  efflux of doxorubicin (fluorescence of supernatant): increase in the efflux of doxorubicin
[3]
  resistance of yeasts to doxorubicin: yeasts expressing human Patched protein resist better than the control yeasts
[4]
  efflux of doxorubicin (fluorescence of supernatant): increase in the efflux of doxorubicin
